# Experimental data taken from ChEMBL document CHEMBL3763135, “Synthesis and evaluation of thiophene-based guanylhydrazones (iminoguanidines) efficient against panel of voriconazole-resistant fungal isolates” (Bioorg Med Chem, 2016).
# Activity calls are given as the source filed them. No cut-off for these calls is given here.
# Tests used:
# Candida albicans [1] = test: Antifungal activity against Candida albicans ATCC 10231 by broth dilution method; type: functional
# Candida albicans [2] = test: Antifungal activity against Candida albicans CA5 by broth dilution method; type: functional
# Candida parapsilosis = test: Antifungal activity against Candida parapsilosis C27 by broth dilution method; type: functional; details: Lodderomyces parapsilosis
# Fusarium oxysporum = test: Antifungal activity against Fusarium oxysporum AB18 by broth dilution method; type: functional
# Microsporum canis = test: Antifungal activity against Microsporum canis DMT2 by broth dilution method; type: functional
# [3] = tested on: Trichophyton mentagrophytes; test: Antifungal activity against Trichophyton mentagrophytes DMT4 by broth dilution method; type: functional
# MRC5 = test: Cytotoxicity against human MRC5 cells after 48 hrs by MTT assay; type: cell-based; details: MRC5, 48 h
# Candida albicans [4] = test: Antifungal activity against Candida albicans CA5 assessed as fungal growth at sub-MIC measured after 24 hrs by time-kill dependence-based spectrophotometric analysis relative to DMSO control; type: functional, organism-based
# [5] = Induction of membrane damage in PC/PS/E liposome assessed as calcein release at MIC after 30 mins by fluorescence-based liposome leakage assay; type: functional
# Candida albicans [6] = test: Induction of DNA intercalation with Candida albicans genomic DNA at 25 ug/ml after 12 hrs by ethidium bromide staining based gel electrophoresis method
# Pichia kudriavzevii = test: Antibiofilm activity against Pichia kudriavzevii ATCC 34135 assessed as disruption of preformed biofilm after 24 hrs by concanavalin A-FITC-staining based fluorescence microscopic analysis; type: functional
# [7] = Toxicity against zebrafish embryo assessed as dead embryos at 50 ug/ml measured at 96 hrs post fertilization by inverted microscopic analysis; type: organism-based, Danio rerio; details: read-out: Activity
# [8] = Toxicity against zebrafish embryo assessed as dead embryos at 10 ug/ml measured at 96 hrs post fertilization by inverted microscopic analysis; type: organism-based, Danio rerio; details: read-out: Activity
# [9] = Toxicity against zebrafish embryo assessed as dead embryos at 5 ug/ml measured at 96 hrs post fertilization by inverted microscopic analysis; type: organism-based, Danio rerio; details: read-out: Activity
# [10] = Toxicity against zebrafish embryo assessed as dead embryos at 2.5 ug/ml measured at 96 hrs post fertilization by inverted microscopic analysis; type: organism-based, Danio rerio; details: read-out: Activity
# Danio rerio [11] = species: Danio rerio; test: Toxicity against zebrafish embryo assessed as teratogenic embryos at 50 ug/ml measured at 96 hrs post fertilization by inverted microscopic analysis; type: organism-based; details: in vivo
# Danio rerio [12] = species: Danio rerio; test: Toxicity against zebrafish embryo assessed as teratogenic embryos at 25 ug/ml measured at 96 hrs post fertilization by inverted microscopic analysis; type: organism-based; details: in vivo
# Danio rerio [13] = species: Danio rerio; test: Toxicity against zebrafish embryo assessed as teratogenic embryos at 10 ug/ml measured at 96 hrs post fertilization by inverted microscopic analysis; type: organism-based; details: in vivo
# Danio rerio [14] = species: Danio rerio; test: Toxicity against zebrafish embryo assessed as effect on tail tip at 10 ug/ml measured at 96 hrs post fertilization by inverted microscopic analysis; type: organism-based; details: in vivo
# Danio rerio [15] = species: Danio rerio; test: Toxicity against zebrafish embryo assessed as effect on tail tip at 2.5 ug/ml measured at 96 hrs post fertilization by inverted microscopic analysis; type: organism-based; details: in vivo
# Danio rerio [16] = species: Danio rerio; test: Toxicity against zebrafish embryo assessed as growth retardation at 10 ug/ml measured at 96 hrs post fertilization by inverted microscopic analysis; type: organism-based; details: in vivo
# Danio rerio [17] = species: Danio rerio; test: Toxicity against zebrafish embryo assessed as growth retardation at 2.5 ug/ml measured at 96 hrs post fertilization by inverted microscopic analysis; type: organism-based; details: in vivo
# [18] = Toxicity against zebrafish embryo measured at 96 hrs post fertilization by inverted microscopic analysis; type: organism-based, Danio rerio; details: zebrafish embryos
# Danio rerio [19] = species: Danio rerio; test: Toxicity against zebrafish embryo assessed as normal embryos at 50 ug/ml measured at 96 hrs post fertilization by inverted microscopic analysis; type: organism-based; details: in vivo
# Danio rerio [20] = species: Danio rerio; test: Toxicity against zebrafish embryo assessed as normal embryos at 25 ug/ml measured at 96 hrs post fertilization by inverted microscopic analysis; type: organism-based; details: in vivo
# Danio rerio [21] = species: Danio rerio; test: Toxicity against zebrafish embryo assessed as normal embryos at 10 ug/ml measured at 96 hrs post fertilization by inverted microscopic analysis; type: organism-based; details: in vivo
# Danio rerio [22] = species: Danio rerio; test: Toxicity against zebrafish embryo assessed as effect on notochord at 10 ug/ml measured at 96 hrs post fertilization by inverted microscopic analysis; type: organism-based; details: in vivo
# Danio rerio [23] = species: Danio rerio; test: Toxicity against zebrafish embryo assessed as effect on notochord at 2.5 ug/ml measured at 96 hrs post fertilization by inverted microscopic analysis; type: organism-based; details: in vivo
# Danio rerio [24] = species: Danio rerio; test: Toxicity against zebrafish embryo assessed as effect on eyes at 10 ug/ml measured at 96 hrs post fertilization by inverted microscopic analysis; type: organism-based; details: in vivo
# Danio rerio [25] = species: Danio rerio; test: Toxicity against zebrafish embryo assessed as effect on eyes at 5 ug/ml measured at 96 hrs post fertilization by inverted microscopic analysis; type: organism-based; details: in vivo
# Danio rerio [26] = species: Danio rerio; test: Toxicity against zebrafish embryo assessed as effect on eyes at 2.5 ug/ml measured at 96 hrs post fertilization by inverted microscopic analysis; type: organism-based; details: in vivo
# Danio rerio [27] = species: Danio rerio; test: Toxicity against zebrafish embryo assessed as effect on otoliths at 10 ug/ml measured at 96 hrs post fertilization by inverted microscopic analysis; type: organism-based; details: in vivo
# Danio rerio [28] = species: Danio rerio; test: Toxicity against zebrafish embryo assessed as effect on otoliths at 5 ug/ml measured at 96 hrs post fertilization by inverted microscopic analysis; type: organism-based; details: in vivo
# Danio rerio [29] = species: Danio rerio; test: Toxicity against zebrafish embryo assessed as effect on otoliths at 2.5 ug/ml measured at 96 hrs post fertilization by inverted microscopic analysis; type: organism-based; details: in vivo
# Danio rerio [30] = test: Toxicity against zebrafish embryo assessed as pericardial edema at 5 ug/ml measured at 96 hrs post fertilization by inverted microscopic analysis; type: organism-based; details: in vivo
# Danio rerio [31] = test: Toxicity against zebrafish embryo assessed as yolk edema at 10 ug/ml measured at 96 hrs post fertilization by inverted microscopic analysis; type: organism-based; details: in vivo
# Danio rerio [32] = test: Toxicity against zebrafish embryo assessed as yolk edema at 2.5 ug/ml measured at 96 hrs post fertilization by inverted microscopic analysis; type: organism-based; details: in vivo
# Danio rerio [33] = species: Danio rerio; test: Toxicity against zebrafish embryo assessed as effect on heart beat at 5 ug/ml measured at 96 hrs post fertilization by inverted microscopic analysis; type: organism-based; details: in vivo
# Danio rerio [34] = species: Danio rerio; test: Toxicity against zebrafish embryo assessed as effect on heart beat at 2.5 ug/ml measured at 96 hrs post fertilization by inverted microscopic analysis; type: organism-based; details: in vivo
# Danio rerio [35] = species: Danio rerio; test: Toxicity against zebrafish embryo assessed as effect on blood circulation at 10 ug/ml measured at 96 hrs post fertilization by inverted microscopic analysis; type: organism-based; details: in vivo
# Danio rerio [36] = species: Danio rerio; test: Toxicity against zebrafish embryo assessed as effect on blood circulation at 5 ug/ml measured at 96 hrs post fertilization by inverted microscopic analysis; type: organism-based; details: in vivo
# Danio rerio [37] = species: Danio rerio; test: Toxicity against zebrafish embryo assessed as effect on blood circulation at 2.5 ug/ml measured at 96 hrs post fertilization by inverted microscopic analysis; type: organism-based; details: in vivo
# Danio rerio [38] = species: Danio rerio; test: Toxicity against zebrafish embryo assessed as unhatched embryos at 10 ug/ml measured at 96 hrs post fertilization by inverted microscopic analysis; type: organism-based; details: in vivo
# Danio rerio [39] = species: Danio rerio; test: Toxicity against zebrafish embryo assessed as head malformation at 10 ug/ml measured at 96 hrs post fertilization by inverted microscopic analysis; type: organism-based; details: in vivo
# Danio rerio [40] = species: Danio rerio; test: Toxicity against zebrafish embryo assessed as head malformation at 5 ug/ml measured at 96 hrs post fertilization by inverted microscopic analysis; type: organism-based; details: in vivo
# Danio rerio [41] = species: Danio rerio; test: Toxicity against zebrafish embryo assessed as head malformation at 2.5 ug/ml measured at 96 hrs post fertilization by inverted microscopic analysis; type: organism-based; details: in vivo
# Danio rerio [42] = species: Danio rerio; test: Toxicity against zebrafish embryo assessed as skeletal deformities at 10 ug/ml measured at 96 hrs post fertilization by inverted microscopic analysis; type: organism-based; details: in vivo
# Danio rerio [43] = species: Danio rerio; test: Toxicity against zebrafish embryo assessed as skeletal deformities at 2.5 ug/ml measured at 96 hrs post fertilization by inverted microscopic analysis; type: organism-based; details: in vivo
compound,measurement,setting,value
Cl.Cl.N=C(N)N/N=C/c1ccc(-c2ccc(/C=N/NC(=N)N)s2)cc1,MIC,Candida albicans [1],3.9 µg/mL
same,MIC,Candida albicans [2],0.5 µg/mL
same,MIC,Candida parapsilosis,50 µg/mL
same,MIC,Fusarium oxysporum,> 250 µg/mL
same,MIC,Microsporum canis,0.97 µg/mL
same,MIC,[3],3.9 µg/mL
same,IC50,MRC5,10 µg/mL
same,Activity,Candida albicans [4],inactive
same,Activity,[5],7%
same,Activity,Candida albicans [6],Active
same,MBEC,Pichia kudriavzevii,500 µg/mL
same,"mortality at 96 h, 50 ug/ml",[7],3.33%
same,"mortality at 96 h, 10 ug/ml",[8],0%
same,"mortality at 96 h, 5 ug/ml",[9],0%
same,"mortality at 96 h, 2.5 ug/ml",[10],0%
same,Activity,Danio rerio [11],0%
same,Activity,Danio rerio [12],0%
same,Activity,Danio rerio [13],0%
same,Activity,Danio rerio [14],0%
same,Activity,Danio rerio [15],0%
same,Activity,Danio rerio [16],0%
same,Activity,Danio rerio [17],0%
same,LC50 at 96 h,[18],> 50 µg/mL
same,Activity,Danio rerio [19],96.67%
same,Activity,Danio rerio [20],96.67%
same,Activity,Danio rerio [21],100%
same,Activity,Danio rerio [22],0%
same,Activity,Danio rerio [23],0%
same,Activity,Danio rerio [24],0%
same,Activity,Danio rerio [25],0%
same,Activity,Danio rerio [26],0%
same,Activity,Danio rerio [27],0%
same,Activity,Danio rerio [28],0%
same,Activity,Danio rerio [29],0%
same,Activity,Danio rerio [30],0%
same,Activity,Danio rerio [31],0%
same,Activity,Danio rerio [32],0%
same,Activity,Danio rerio [33],0%
same,Activity,Danio rerio [34],0%
same,Activity,Danio rerio [35],0%
same,Activity,Danio rerio [36],0%
same,Activity,Danio rerio [37],0%
same,Activity,Danio rerio [38],0%
same,Activity,Danio rerio [39],0%
same,Activity,Danio rerio [40],0%
same,Activity,Danio rerio [41],0%
same,Activity,Danio rerio [42],0%
same,Activity,Danio rerio [43],0%
Cl.N=C(N)N/N=C/c1ccc(-c2ccc(Br)cc2)s1,MIC,Candida albicans [1],3.12 µg/mL
same,MIC,Candida albicans [2],1.56 µg/mL
same,MIC,Candida parapsilosis,3.9 µg/mL
same,MIC,Fusarium oxysporum,3.9 µg/mL
same,MIC,Microsporum canis,0.25 µg/mL
same,MIC,[3],0.97 µg/mL
same,IC50,MRC5,2 µg/mL
same,Activity,Candida albicans [4],inactive
same,Activity,[5],7%
same,Activity,Candida albicans [6],Active
same,MBEC,Pichia kudriavzevii,125 µg/mL
same,"mortality at 96 h, 50 ug/ml",[7],100%
same,"mortality at 96 h, 10 ug/ml",[8],30%
same,"mortality at 96 h, 5 ug/ml",[9],10%
same,"mortality at 96 h, 2.5 ug/ml",[10],0%
same,Activity,Danio rerio [11],0%
same,Activity,Danio rerio [12],26.67%
same,Activity,Danio rerio [13],23.33%
same,Activity,Danio rerio [14],0%
same,Activity,Danio rerio [15],0%
same,Activity,Danio rerio [16],0%
same,Activity,Danio rerio [17],0%
same,LC50 at 96 h,[18],14.1 µg/mL
same,Activity,Danio rerio [19],0%
same,Activity,Danio rerio [20],0%
same,Activity,Danio rerio [21],46.67%
same,Activity,Danio rerio [22],0%
same,Activity,Danio rerio [23],0%
same,Activity,Danio rerio [24],0%
same,Activity,Danio rerio [25],0%
same,Activity,Danio rerio [26],0%
same,Activity,Danio rerio [27],0%
same,Activity,Danio rerio [28],0%
same,Activity,Danio rerio [29],0%
same,Activity,Danio rerio [30],11.11%
same,Activity,Danio rerio [31],0%
same,Activity,Danio rerio [32],0%
same,Activity,Danio rerio [33],0%
same,Activity,Danio rerio [34],0%
same,Activity,Danio rerio [35],0%
same,Activity,Danio rerio [36],0%
same,Activity,Danio rerio [37],0%
same,Activity,Danio rerio [38],0%
same,Activity,Danio rerio [39],0%
same,Activity,Danio rerio [40],0%
same,Activity,Danio rerio [41],0%
same,Activity,Danio rerio [42],0%
same,Activity,Danio rerio [43],0%
